Laboratory results: patent publication US9567301B2, “Pyrrol-1-yl benzoic acid derivatives useful as myc inhibitors” (Whitehead Institute for Biomedical Research, priority 2012, dated 2017)
Where two headings read alike, the source gives them in different places.

Columns and labels:
H2171 cells = test: Cell viability assay (ATPlite), H2171; type: cell-based, human; settings: cell viability, three days, ATPlite, NA: inactive under assay conditions
Method: (§1) This assay was used for the H2171 and MM1S cell data shown in Table 2, and for the Jurkat (an immortalized line of human T lymphocyte cells), Ly1 (OCI-Ly1 human non-Hodgkin lymphoma cell line), Ly4 (OCI-Ly4 human non-Hodgkin lymphoma cell line), H2172 (NCI-H2172 human non-small cell lung cancer cell line), and CA-46 (a human Burkitt's lymphoma cell line) cell data shown in Table 3 and FIG. 12. Cells were counted and adjusted to 60,000 cells/mL. Using a Biotek EL406, 50 μL of cells are media were distributed into 384 well white plates from Thermo. Immediately after plating, compound in DMSO was distributed to plates. For large plate sets, cells were returned to 37° C. incubator while not in use.
(§2) Compounds were added to plates using a 100 nL 384 well pin transfer manifold on a Janus workstation. Stocks were arrayed in 10 point quadruplicate dose response in DMSO stock in 384 well Greiner compound plates. After addition of compound, plates were incubated for three days in a 37° C. incubator.
(§3) Cell viability was read out using ATPlite from Perkin Elmer. Plates were removed from the incubator and brought to room temperature prior to use. Lyophilized powder was resuspended in lysis buffer and diluted 1:2 with DI water. 25 μL of this solution was added to each well using the Biotek liquid handler. Plates were sealed with adherent aluminum seals prior to vortexing and spinning down at 1000 g for 1 minute. Plates were incubated for 15 minutes at room temperature before signal was read on an Envision Plate Reader.

MM1S cells = test: Cell viability assay (ATPlite), MM1S; type: cell-based, human; settings: cell viability, three days, ATPlite, NA: inactive under assay conditions
Method: as §1, §2, §3

c-Myc/Max/Ebox DNA = c-Myc/Max/Ebox DNA (Homo sapiens, UniProt P01106); test: c-Myc/Max/Ebox DNA AlphaScreen assay; type: binding; parameters: An exemplary assay uses full-length human c-Myc and Max proteins; his6 (cleaved yes); made in house
Method: This protocol was used to generate the biochemical data in Table 2 and FIG. 11. The primary AlphaScreen assay is amenable to 384-well and 1536-well plate formats for HTS. Human his6-c-Myc and his6-Max were used with biotinylated DNA containing a single Ebox sequence (biotin[…]) purchased from MWG Operon. Free c-Myc was generated from his6-c-Myc through thrombin cleavage of the his6 tag. For 384-well plate assays, 10 μL of a 2× solution of free c-Myc (25 nM final), Ni++-coated Acceptor Bead (25 μg/ml final), and biotinylated Ebox oligo (10 nM final) were added to 384-well plates with a Biotek EL406 liquid handler. 100 nL of compounds from stock plates were added by pin transfer using a Janus Workstation (PerkinElmer), allowing the compounds to interact with c-Myc prior to c-Myc binding with Max. In the current assay, DMSO was not allowed to exceed 2% v/v of the assay. 10 μl of 2× master mix containing streptavidin-coated donor beads (25 μg/ml final) and his6-Max (1.25 nM final) were added. AlphaScreen measurements were performed on an Envision 2104 (PerkinElmer) utilizing the manufacturer's protocol. The assay can also be performed in 1536-plate format with 8 μL total volume using two 4 μL additions (instead of […] and 10 μL respectively).
Assays are performed with minor modifications from the manufacturer's protocol (PerkinElmer). Both master mixes were made in room temperature assay buffer (50 mM HEPES, 150 mM NaCl, 0.2% w/v BSA, 0.02% w/v Tween20, 40 μg/ml glycogen, 500 μM DTT, pH 8.0, DTT and glycogen added fresh). Alpha beads were added to respective master solutions and wrapped in foil. All subsequent steps were performed in low light conditions. Solution 1: 2× solution of components with final concentrations of cMyc (25 nM), Ni-coated Acceptor Bead (25 μg/ml), and biotinylated Ebox oligo (10 nM). Solution 2: 2× solution of streptavidin-coated donor beads (25 μg/ml final) and his6-Max (1.25 nM final). […] Solution 1 were added to 384-well plate (AlphaPlate-384, PerkinElmer) with Biotek EL406 liquid handler and the plates were centrifuged at 1000 rpm for 1 minute. 100 nL of compounds from stock plates were added by pin transfer using a Janus Workstation. 10 μL Solution 2 were added with the liquid handler. Plates were sealed with foil to block light exposure and prevent evaporation. Plates were centrifuged at 1000 rpm for 1 minute followed by 2 hour incubation. AlphaScreen measurements were performed on an Envision 2104 utilizing the manufacturer's protocol. Excitation was at 680 nm for donor bead release of singlet oxygen and emission was read with a bandpass filter from 520-620 nm. Glycogen: Roche Diagnostics #10901393001. Plate 1536: Perkin Elmer, 6004350. Plate 384: Perkin Elmer, 6005350. Nickel-His Alpha Beads: 6760619R.

Jurkat cells = test: Cell viability assay (ATPlite), Jurkat; type: cell-based, human; settings: Homo sapiens, Jurkat; class symbols; NA: not active under assay conditions
Method: as §1, §2, §3

[1] = c-Myc/Max/Ebox DNA AlphaScreen, NA: inactive under assay conditions, read-out: Biochemical IC50
[2] = class symbols, NA: not active under assay conditions, read-out: Myc/Max IC50

Chain of c-Myc/Max/Ebox DNA (P01106 16-454): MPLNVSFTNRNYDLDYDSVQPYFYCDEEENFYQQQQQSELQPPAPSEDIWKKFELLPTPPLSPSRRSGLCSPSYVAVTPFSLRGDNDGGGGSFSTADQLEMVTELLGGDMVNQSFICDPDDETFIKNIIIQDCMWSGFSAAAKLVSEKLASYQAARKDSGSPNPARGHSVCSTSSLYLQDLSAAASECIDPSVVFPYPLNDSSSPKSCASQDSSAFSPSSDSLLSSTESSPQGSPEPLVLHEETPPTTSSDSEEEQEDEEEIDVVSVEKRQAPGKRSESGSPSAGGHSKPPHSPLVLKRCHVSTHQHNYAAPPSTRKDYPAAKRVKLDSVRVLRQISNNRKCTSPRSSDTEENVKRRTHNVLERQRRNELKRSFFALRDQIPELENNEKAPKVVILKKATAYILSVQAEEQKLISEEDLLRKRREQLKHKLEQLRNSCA

| EC50 (H2171 cells; Homo sapiens, NCI-H2171, 72 h) [µM] | EC50 (MM1S cells; Homo sapiens, MM1.S, 72 h) [µM] | IC50 (c-Myc/Max/Ebox DNA; [1]) [µM] | EC50 (H2171 cells) [µM] | EC50 (MM1S cells) [µM] | EC50 (Jurkat cells) [µM] | IC50 (c-Myc/Max/Ebox DNA; [2]) [µM] | SMILES |
| --- | --- | --- | --- | --- | --- | --- | --- |
| 28 | 99.1 | 150 | – | – | – | – | CC(=O)OCOC(=O)c1ccccc1-n1cccc1 [Compound 150] |
| 22.8 | 71.9 | 2480 | – | – | – | – | CC(=O)OCOC(=O)c1ccccc1N1CCOCC1 [Compound 152] |
| 93.5 | 185 | 403 | – | – | – | – | Cc1cccc(Nc2ccccc2C(=O)O)c1C [Compound 153] |
| 247 | 222 | 1.8 | – | – | – | – | CC(=O)Nc1ccc(-n2c(C)ccc2C)c(C(=O)O)c1 [Compound 155] |
| 70.3 | 238 | 206 | – | – | – | – | CC(=O)OCOC(=O)c1ccc(Cl)cc1-n1c(C)ccc1C [Compound 158] |
| 104 | 211 | 94.6 | – | – | – | – | COc1cc(C(=O)OCOC(C)=O)c(-n2c(C)ccc2C)cc1OC [Compound 160] |
| – | – | – | – | – | ≥ 100 | 1 to 10 | Cc1ccc(C)n1-c1cc(C(=O)N2CCCC(c3ccc(C(=O)O)cc3)C2)ccc1C(=O)O (centres unmarked) [Compound 164] |
| – | – | – | – | – | 10 to 100 | 10 to 100 | Cc1ccc(C)n1-c1cc(-c2nnc(-c3cccc(C(=O)O)c3)o2)ccc1C(=O)O [Compound 167] |
| – | – | – | – | – | ≥ 100 | 1 to 10 | Cc1ccc(C)n1-c1cc(C(=O)N2CCCC(c3cccc(C(=O)O)c3)C2)ccc1C(=O)O (centres unmarked) [Compound 169] |
| – | – | – | – | – | ≥ 100 | 10 to 100 | Cc1ccccc1N1CCN(C(=O)c2ccc(C(=O)O)c(-n3c(C)ccc3C)c2)CC1 [Compound 179] |
| – | – | – | – | – | ≥ 100 | 10 to 100 | Cc1ccc(C)n1-c1ccccc1C(=O)NS(C)(=O)=O [Compound 180] |
| – | – | – | – | – | ≥ 100 | 1 to 10 | Cc1ccc(C)n1-c1cccnc1C(=O)O [Compound 181] |
| – | – | – | – | – | ≥ 100 | 1 to 10 | Cc1ccc(C)n1-c1cc(C(=O)N2CCN(c3cccc(O)c3)CC2)ccc1C(=O)O [Compound 182] |
| – | – | – | – | – | ≥ 100 | ≥ 100 | COC(=O)c1ccc(C(=O)NNC(=O)OC(C)(C)C)cc1-n1c(C)ccc1C [Compound 184] |
| – | – | – | – | – | ≥ 100 | 10 to 100 | COc1ccc(C2CCCN(C(=O)c3ccc(C(=O)O)c(-n4c(C)ccc4C)c3)C2)cc1 (centres unmarked) [Compound 185] |
| – | – | – | – | – | ≥ 100 | ≥ 100 | Cc1ccc(C)n1-c1cc(C(=O)N2CCCC(c3ccc(C(=O)NS(C)(=O)=O)cc3)C2)ccc1C(=O)NS(C)(=O)=O (centres unmarked) [Compound 186] |
| – | – | – | – | – | ≥ 100 | ≥ 100 | Cc1ccc(C)n1-c1ncccc1C(=O)NS(C)(=O)=O [Compound 187] |
| – | – | – | – | – | ≥ 100 | 10 to 100 | Cc1ccc(C)n1-c1cc(C(=O)N2CCCC(c3ccccc3)C2)ccc1C(=O)O (centres unmarked) [Compound 188] |
| – | – | – | – | – | 10 to 100 | 1 to 10 | COc1cccc(C2CCCN(C(=O)c3ccc(C(=O)O)c(-n4c(C)ccc4C)c3)C2)c1 (centres unmarked) [Compound 189] |
| – | – | – | – | – | 10 to 100 | ≥ 100 | Cc1ccc(C)n1-c1ccccc1C(=O)NS(=O)(=O)C1CC1 [Compound 190] |
| – | – | – | – | – | 10 to 100 | ≥ 100 | Cc1ccc(C)n1-c1ccccc1C(=O)NS(=O)(=O)c1ccccc1 [Compound 191] |
| – | – | – | – | – | 10 to 100 | ≥ 100 | Cc1ccc(C(F)(F)F)n1-c1ccccc1C(=O)O [Compound 192] |
| – | – | – | – | – | ≥ 100 | < 1 | Cc1ccc(C)n1-c1cc(CNCc2ccc(C(=O)O)cc2)ccc1C(=O)O [Compound 193] |
| – | – | – | – | – | 10 to 100 | ≥ 100 | Cc1ccc(C)n1-c1cc(C(=O)N2CCN(c3cccnc3)CC2)ccc1C(=O)O [Compound 194] |

More lines, now with the values behind:

| SMILES | EC50 (H2171 cells; Homo sapiens, NCI-H2171, 72 h) [µM] | EC50 (MM1S cells; Homo sapiens, MM1.S, 72 h) [µM] | IC50 (c-Myc/Max/Ebox DNA; [1]) [µM] | EC50 (H2171 cells) [µM] | EC50 (MM1S cells) [µM] | EC50 (Jurkat cells) [µM] | IC50 (c-Myc/Max/Ebox DNA; [2]) [µM] |
| --- | --- | --- | --- | --- | --- | --- | --- |
| Cc1nccn1-c1ccccc1C(=O)O [Compound 26] | 6.27 | 11.5 | 442 | – | – | – | – |
| Cc1ccc(C)n1-c1ccc(C(=O)O)c(O)c1 [Compound 65] | – | – | 61.9 | 189 | 1440 | – | – |
| Cc1ccc(C)n1-c1ccccc1CC(=O)O [Compound 68] | 52.9 | 340 | 195 | – | – | – | – |
| Cc1ccc(C)n1-c1ccccc1/C=C/C(=O)O [Compound 69] | 115 | 39 | 156 | – | – | – | – |
| Cc1ccc(C)n1-c1cc(C(=O)NN)ccc1C(=O)O [Compound 70] | – | 1240 | 6.98 | 43.7 | – | – | – |
| Cc1ccc(C)n1-c1cc(C(=O)N/N=C/c2ccccc2)ccc1C(=O)O [Compound 71] | 48.4 | 261 | 103 | – | – | – | – |
| Cc1ccc(C)n1-c1cc(C(=O)NCCc2c[nH]cn2)ccc1C(=O)O [Compound 72] | 198 | 2760 | 15.4 | – | – | – | – |
| Cc1ccc(C)n1-c1cc(C(=O)NCCN2CCN(C)CC2)ccc1C(=O)O [Compound 74] | 120 | 27600 | 104 | – | – | – | – |
| Cc1ccc(C)n1-c1cc(C(=O)N/N=C/c2ccc3c(c2)OCCN3C)ccc1C(=O)O [Compound 89] | 198 | 92.4 | 38 | – | – | – | – |
| Cc1ccc(C)n1-c1cc(C(=O)N/N=C/c2cc(C(F)(F)F)cc(C(F)(F)F)c2)ccc1C(=O)O [Compound 98] | 24100 | 5170 | 3.84 | – | – | – | – |
| Cc1ccc(C)n1-c1cc(C(=O)N/N=C/c2ccc(F)c(F)c2)ccc1C(=O)O [Compound 99] | 106 | 492 | 4.82 | – | – | – | – |
| Cc1ccc(C)n1-c1ccc(C(=O)O)c(O)c1 [Compound 127] | – | – | 53.3 | 517 | 517 | – | – |
| Cc1ccc(C)n1-c1ccccc1S(=O)(=O)O [Compound 128] | 303 | 243 | 252 | – | – | – | – |
| Cc1ccc(C)n1-c1cc2ccccc2cc1C(=O)O [Compound 129] | 151 | 264 | 31 | – | – | – | – |
| Cc1cc(Br)c(-n2c(C)ccc2C)c(C(=O)O)c1 [Compound 130] | 224 | 300 | 51.5 | – | – | – | – |
| Cc1ccc(C)n1-c1ncccc1C(=O)O [Compound 134] | – | – | – | – | – | ≥ 100 | 1 to 10 |
| Cc1c(C)c(C)n(-c2ccc(C(=O)O)c(O)c2)c1C [Compound 139] | 564 | 329 | 96.4 | – | – | – | – |
| CC(=O)OCOC(=O)c1ccc(-n2c(C)ccc2C)cc1O [Compound 143] | – | – | 91.4 | 66.1 | 161 | – | – |
| COc1cc(C(=O)O)c(-n2c(C)ccc2C)cc1OC [Compound 145] | 83.8 | 161 | 13.5 | – | – | – | – |
| Cc1ccc(-c2ccc(-n3c(C)ccc3C)c(C(=O)O)c2)cc1 [Compound 148] | 268 | 1690 | 941 | – | – | – | – |
| CC(=O)OCOC(=O)c1ccccc1-n1c(C)ccc1C [Compound 149] | – | – | 101 | 20.7 | 71.4 | – | – |
